How the values were obtained:
Assay type in all cases: cell-based
[1] = system: TTP mRNA in MDA-MB-231 cells; assay: qPCR for TTP mRNA expression; conditions: MDA-MB-231, 24 h, vs DMSO
Procedure: (§1) Cells were cultured in six-well plates and either treated with DMSO or drugs for 24 h. Total RNA was then extracted using Trizol reagent (TRI Reagent, Sigma-Aldrich, St Louis, Mo.). The cells were lysed directly on the culture dish by adding 1 ml of the TRI Reagent per 10 cm^2 surface area. Reverse transcription for preparation of cDNA was performed using 3 μg of total RNA, 150 ng random primers, 0.1 M dithiothreitol (DTT), 10 mM deoxynucleotide triphosphate (dNTP) and 200 U of SuperScript II (Invitrogen, Foster City, Calif.). The quantitative RT-QPCR was performed in multiplex in the Chroma 4 DNA Engine cycler (BioRad, Hercules, Calif., USA) using FAM-labelled TaqMan probes (Applied Biosystems, Foster City, Calif., USA) for TTP (ZFP36), HuR (ELAVL1), uPA (PLAU)-CXCR4, MMP-1, MMP-13, IL-8, PLK-1 while a VIC-labelled glyceraldehyde-3-phosphate dehydrogenase (GAPDH) probe was used as the endogenous control. Samples were amplified in triplicate and quantification of relative expression was performed using the estimation of quantitation cycle (Cq) method.
(§2) To study the influence of PLK-1 inhibition on ARE-containing mRNA stability, the effect of volasertib treatment on the half-life of uPA was analyzed. Half-life of uPA mRNA was reduced from >6 hr to 0.5 hr in response to volasertib treatment compared to the DMSO control (FIG. 12C). […]

[2] = system: HuR mRNA in MDA-MB-231 cells; assay: qPCR for HuR mRNA expression; conditions: MDA-MB-231, 24 h, vs DMSO
Procedure: as §1, §2

MDA-MB-231 cells [3] = assay: Invasion assay (RTCA, Matrigel)
Procedure: MDA-MB-231 cells were seeded in 6-well cell culture plates and incubated overnight. The cells were treated with the selected protein kinase inhibitors and incubated overnight. Then they were reseeded onto the invasion chamber in serum-free media at a density of 2×10^4 cells per well using 16-well CIM-Plate in Real-Time Cell Analysis (RTCA) Dual Plate (DP) Analyzer (ACEA Bioscinece, California, USA) that was loaded inside the incubator. The lower chambers to which cells will migrate were prepared to contain chemoattractant consisted of 10% FBS. For invasion assays, Matrigel (BioCoat, BD Biosciences, MA) which resembles the complex extracellular environment found in many tissues was prepared and used to coat the upper chamber of CIM plates. Invasion and migration were monitored continuously over 72-hour period using RTCA Software (ACEA Bioscinece, California, USA). The RTCA Instrument automatically monitors the cells every 15 minutes for 100 repetitions. For proliferation assays, the same principle was applied using a single chamber containing complete DMEM media (FIG. 10).
Based on the dose-response curve, 330 nM was selected to be used as a standard dose for the experiments. In the invasion assay, MDA-MB-231 cells were treated with volasertib or DMSO for 24 hr, then invasion was monitored for 30 hr.

MDA-MB-231 cells [4] = assay: RNAseq analysis of global gene expression
Source text: mRNA was extracted from DMSO- or volasertib-treated […]. cDNA libraries were made for sequencing a measure of transcript copy numbers that correspond to the abundance of each gene (FIG. 6A). […] Among those is 170 ARE-coding genes as derived by crossing with AU-rich element database. (FIG. 6B).

PD-1L = PD-1L expression; conditions: FIG. 18
Procedure: FIG. 18: Volasertib reduces PD-1L expression.
These include IL-8, solute carrier family 2 member 1 (SLC2A1), uPA, uPAR, CXCR4, MMP13, PDL1, and HuR. The MDA-MB-231 cells were treated with 330 nM volasertib or DMSO for 24 hr, then quantitative RT-qPCR was performed in using FAM-labelled TaqMan probe of the above genes and normalized to GADPH (FIG. 11).

CC[C@@H]1C(=O)N(C)c2cnc(Nc3ccc(C(=O)N[C@H]4CC[C@H](N5CCN(CC6CC6)CC5)CC4)cc3OC)nc2N1C(C)C [volasertib]
enhancement of TTP mRNA expression [1]: 40%
reduction of HuR mRNA expression [2]: 60%
invasive behavior (MDA-MB-231 cells [3]; MDA-MB-231 treated 24 hr, monitored 30 hr, vs DMSO): reduced invasive behavior
time at which the effect on invasion started (MDA-MB-231 cells [3]; after treatment): 6 h
number of ARE-coding genes among the down-regulated genes (MDA-MB-231 cells [4]; crossed with AU-rich element database): 170 genes
number of genes down-regulated by at least 1.7-fold (MDA-MB-231 cells [4]; p<0.001, vs DMSO): 540 genes
PD-1L expression (PD-1L): reduces

— patent publication US20210255168A1, “A METHOD OF PRECISION CANCER THERAPY” (KING FAISAL SPECIALIST HOSPITAL & RESEARCH CENTRE, priority 2018, published 2021)
